≈ marks a conversion by molar mass, not a printed value.
How the values were obtained:
acid sphingomyelinase = target: T1, acid sphingomyelinase (Homo sapiens, UniProt P17405); experiment: Influence on human placenta-originated acid sphingomyelinase; format: biochemical; details: human placenta enzyme (Sigma), pH 5.0, 37° C., 30 minutes; read-out: concentration corresponding to 50% inhibition of acid sphingomyelinase (converted)
T1 construct: an acid sphingomyelinase originating from human placenta (a product of Sigma Co.) was used as the enzyme source; purchased Sigma Co; host or cells: human placenta (tissue-derived enzyme)
T1 sequence (P17405 47-631): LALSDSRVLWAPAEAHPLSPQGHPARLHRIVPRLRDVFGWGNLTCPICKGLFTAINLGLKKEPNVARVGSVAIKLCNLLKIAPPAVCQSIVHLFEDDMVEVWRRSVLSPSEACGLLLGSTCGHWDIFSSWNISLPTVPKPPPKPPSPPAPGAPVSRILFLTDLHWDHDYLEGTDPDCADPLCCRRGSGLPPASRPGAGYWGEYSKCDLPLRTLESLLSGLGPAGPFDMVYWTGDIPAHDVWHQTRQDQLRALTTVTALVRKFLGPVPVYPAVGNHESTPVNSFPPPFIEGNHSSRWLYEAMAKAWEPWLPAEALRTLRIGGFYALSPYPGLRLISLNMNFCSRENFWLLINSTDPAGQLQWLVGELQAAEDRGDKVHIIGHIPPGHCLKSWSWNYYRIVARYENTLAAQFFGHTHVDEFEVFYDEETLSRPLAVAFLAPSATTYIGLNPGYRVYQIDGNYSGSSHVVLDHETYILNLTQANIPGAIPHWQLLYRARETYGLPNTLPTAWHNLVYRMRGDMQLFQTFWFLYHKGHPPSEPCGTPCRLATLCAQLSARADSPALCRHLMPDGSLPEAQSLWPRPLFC
Procedure: (4) Influence on Human Placenta-originated Acid Sphingomyelinase
The assessment of the influence of the substances on human placenta-originated acidic sphingomyelinase was performed in accordance with the method of Jones et al. [Biochem. Journal, 195, 373-382 (1981)] with partial modification.
Thus, an acid sphingomyelinase originating from human placenta (a product of Sigma Co.) was used as the enzyme source and thereto were added 250 mM of sodium acetate buffer solution (pH 5.0), 0.1% of NP-40 (a product of Sigma Co.), and 25 μM [N-methyl-^3H] sphingomyelin (0.006 μCi), and the mixture was filled up to a total volume of 50 μl. After reaction at 37° C. for 30 minutes, 200 μl of chloroform/methanol mixture (1/2 in volume ratio) was added thereto to separate the reaction product [^3H] phosphocholine from the starting material [^3H] sphingomyelin. The upper layer was taken up into a […]. The amount of [^3H] phosphocholine was quantitatively determined by a liquid scintillation counter to estimate the acid sphingomyelinase activity.

Solubility in solvents = format: physicochemical
[1] = test system: Raji cell originating from human Burkitt lymphoma (triacylglycerol synthesis); experiment: Inhibitory action against synthesis of triacylglycerol in human-originated Raji cells; format: cell-based; details: [1-14C]oleic acid, 37° C., 30 minutes; for IC50: Homo sapiens, 0.5 h, read-out: drug concentration corresponding to 50% inhibition of triacylglycerol synthesis
Procedure: (2) Inhibitory Action against Synthesis of Triacylglycerol in Human-originated Cells (Raji Cell originating from Human Burkitt Lymphoma)
The assessment of the influence of the substances on triacylglycerol synthesis was performed in accordance with the method of Tomoda et al. [J. Biol. Chem., 266, 4214-4219 (1991)] using human-originated cells (Raji cell originated from human Burkitt lymphoma). A Raji cell dispersion of 2.7×10^6 cells per milliliter containing […] [1^−14C] oleic acid (0.02 μCi) was filled up to a total volume 200 μl, whereupon the reaction proceeded at 37° C. for 30 minutes. The total lipids were extracted with a chloroform/methanol (2/1) mixture. Then, the activity was measured in the same manner as in the “inhibitory action against rat-originated diacylglycerol-acyltransferase”.
The calculation of the drug concentration corresponding to 50% inhibition of triacylglycerol synthesis gives a value of 10 μg/ml for all the substances KF-1040T4A, KF-1040T4B, KF-1040T5A and KF-1040T5B.

[2] = target: diacylglycerol acyltransferase; experiment: Inhibitory action against rat-originated diacylglycerol acyltransferase (rat liver microsomal fraction); format: biochemical; details: [1-14C]palmitoyl-CoA, 23° C., 15 minutes
Procedure: (1) Inhibitory Action against Rat-originated Diacylglycerol Acyltransferase
The activity of diacylglycerol acyltransferase was determined in accordance with the method of Mayorek and BarTana, [J. Biol. Chem., 260, 6528-6532 (1985)] with partial modification.
Namely, a microsomal fraction prepared from rat liver was used as the enzyme source. To a 175 mM Tris-HCl buffer (pH 8.0) containing 8 mM of MgCl2, 1 mg/ml of bovine serum albumin and 2.5 mM of diisopropyl fluorophosphate, there were added 0.75 mM of dioleoylglycerol and 30 μM of [1^−14C] palmitoyl-CoA (0.02 μCi) and the total volume was adjusted to 200 μl, whereupon the enzymatic reaction mixture was incubated at 23° C. for 15 minutes. The total lipids were extracted with chloroform/methanol (1/2) mixture and each lipid was separated by a TLC (with Kiselgel GF254 and a developing solvent of petroleum ether/diethyl ether/acetic acid of 80/20/1), followed by measurement of the radioactivity of the triacylglycerol fraction using RI RADIO-SCANNER (manufactured by AMBIS System Inc., U.S.A.) to determine the diacylglycerol acyltransferase activity.

IC50 (acid sphingomyelinase) [µM] | Solubility in solvents: methanol, benzene, chloroform and ethyl acetate (Solubility in solvents) | Solubility in solvents: water and hexane (Solubility in solvents) | IC50 [1] [µg/mL] | drug concentration corresponding to 50% inhibition of diacylglycerol acyltransferase [2] [µg/mL] | SMILES | drug concentration corresponding to 50% inhibition of triacylglycerol synthesis [1] [µg/mL]
300 | soluble | slightly soluble | 10 (≈ 12.9 µM) | 13.2 | CCC(C)CC(C)CC(C)C(OC1OC(CO)C(O)C(O)C1O)C(C)/C=C(\C)C(O)C(C)/C=C(\C)C(O)C(C)/C=C(\C)C(=O)OCC(O)C(O)C(O)CO (single isomer, unassigned) [KF-1040T4A] | –
90.1 | soluble | slightly soluble | – | 11.6 | CCC(C)CC(C)CC(C)C(OC1OC(CO)C(O)C(O)C1O)C(C)/C=C(\C)C(O)C(C)/C=C(\C)C(O)C(C)/C=C(\C)C(=O)OCC(O)C(O)C(O)CO (single isomer, unassigned) [KF-1040T4B] | 10
239 | soluble | slightly soluble | 10 (≈ 12.2 µM) | 18.0 | CCC(C)CC(C)CC(C)C(OC1OC(COC(C)=O)C(O)C(O)C1O)C(C)/C=C(\C)C(O)C(C)/C=C(\C)C(O)C(C)/C=C(\C)C(=O)OCC(O)C(O)C(O)CO (single isomer, unassigned) [KF-1040T5A] | –
59.8 | soluble | slightly soluble | – | 14.7 | CCC(C)CC(C)CC(C)C(OC1OC(COC(C)=O)C(O)C(O)C1O)C(C)/C=C(\C)C(O)C(C)/C=C(\C)C(O)C(C)/C=C(\C)C(=O)OCC(O)C(O)C(O)CO (single isomer, unassigned) [KF-1040T5B] | 10

— patent US6608185B1, “Substances KF-1040T4A,KF-1040T4B, KF-1040T5A, and KF-1040T5B, and process for producing same” (Kitasato Institute, priority 2002, dated 2003)
